The values below come from PubChem BioAssay AID1259407 (Chemical Carcinogenesis Research Information System (CCRIS), 2018).

This series has as its system CCRIS mutagenicity, Ames/micronucleus/aberration tests. As to the kind of experiment: CCRIS mutagenicity studies.
Where [1] appears, read: Test System: AMES SALMONELLA TYPHIMURIUM, Strain/Indicator: TA98, Metabolic Activation: NONE, Method: PREINCUBATION
Setting [2] is: Test System: AMES SALMONELLA TYPHIMURIUM, Strain/Indicator: TA98, Metabolic Activation: NONE, Method: STANDARD PLATE.
The mark [3] stands for this setting: Test System: AMES SALMONELLA TYPHIMURIUM, Strain/Indicator: TA98, Metabolic Activation: RAT, LIVER, S-9, AROCLOR 1254, Method: STANDARD PLATE.
[4] abbreviates: Test System: AMES SALMONELLA TYPHIMURIUM, Strain/Indicator: TA100, Metabolic Activation: NONE, Method: STANDARD PLATE.
The mark [5] stands for this setting: Test System: AMES SALMONELLA TYPHIMURIUM, Strain/Indicator: TA100, Metabolic Activation: RAT, LIVER, S-9, AROCLOR 1254, Method: STANDARD PLATE.
The mark [6] stands for this setting: Test System: AMES SALMONELLA TYPHIMURIUM, Strain/Indicator: TM677, Metabolic Activation: NONE, Method: PREINCUBATION

Activity calls are given as the source filed them. No rule for the calls is given here.

Take `C[C@H](CCC(=O)O)[C@H]1CC[C@H]2[C@@H]3CC[C@@H]4C[C@H](O)CC[C@]4(C)[C@H]3C[C@@H](O)[C@]12C`: the mutagenic call is “inactive; negative” (Test System: AMES SALMONELLA TYPHIMURIUM, Strain/Indicator: TA98, Metabolic Activation: NONE, Method: FLUCTUATION TEST); “inactive; negative” under setting [1]; “inactive; negative” (Test System: AMES SALMONELLA TYPHIMURIUM, Strain/Indicator: TA98, Metabolic Activation: RAT, LIVER, S-9, PCB, Method: PREINCUBATION); “inactive; negative” (Test System: AMES SALMONELLA TYPHIMURIUM, Strain/Indicator: TA100, Metabolic Activation: NONE, Method: FLUCTUATION TEST).

In the case of `CCCCN(CCC(C)=O)N=O`, for the setting “Test System: AMES SALMONELLA TYPHIMURIUM, Strain/Indicator: TA1535, Metabolic Activation: RAT, LIVER, S-9, KC500 OR PHENOBARBITAL, Method: LIQUID SUSPENSION”, the mutagenic call was “active; positive”.

`NCP(=O)(O)O`: the mutagenic call is “active; positive (structural changes)” (End Point: In vitro chromosome aberrations, Test System: Human peripheral blood lymphocytes, Metabolic Activation: None); “active; positive” (End Point: In vivo micronucleus, Test System: Bone marrow erythrocytes, Species: Mouse, Strain/Sex: BALB/Male and female, Route: Intraperitoneal).

With `O=S(=O)(O)c1cc(S(=O)(=O)O)c2c(N=Nc3ccccc3)c(O)ccc2c1`, the mutagenic call reads like this: (End Point: IN VITRO CHROMOSOMAL ABERRATIONS, Test System: CHO CELLS, Metabolic Activation: NONE) “inactive; negative”; (End Point: IN VITRO CHROMOSOMAL ABERRATIONS, Test System: CHO CELLS, Metabolic Activation: RAT, LIVER, S-9, AROCLOR 1254) “active; positive”; (Test System: AMES SALMONELLA TYPHIMURIUM, Strain/Indicator: TA97, Metabolic Activation: HAMSTER, LIVER, S-9, AROCLOR 1254 (10 OR 30%), Method: PREINCUBATION) “inactive; negative”; (Test System: AMES SALMONELLA TYPHIMURIUM, Strain/Indicator: TA97, Metabolic Activation: NONE, Method: PREINCUBATION) “inactive; negative”; (Test System: AMES SALMONELLA TYPHIMURIUM, Strain/Indicator: TA97, Metabolic Activation: RAT, LIVER, S-9, AROCLOR 1254 (10 OR 30%), Method: PREINCUBATION) “inactive; negative”; (Test System: AMES SALMONELLA TYPHIMURIUM, Strain/Indicator: TA98, Metabolic Activation: HAMSTER, LIVER, S-9, AROCLOR 1254 (10 OR 30%), Method: PREINCUBATION) “inactive; negative”. In addition, the mutagenic call is “inactive; negative” under setting [1]; “inactive; negative” (Test System: AMES SALMONELLA TYPHIMURIUM, Strain/Indicator: TA98, Metabolic Activation: RAT, LIVER, S-9, AROCLOR 1254 (10 OR 30%), Method: PREINCUBATION); “inactive; negative” (Test System: AMES SALMONELLA TYPHIMURIUM, Strain/Indicator: TA100, Metabolic Activation: HAMSTER, LIVER, S-9, AROCLOR 1254 (10 OR 30%), Method: PREINCUBATION); “inactive; negative” (Test System: AMES SALMONELLA TYPHIMURIUM, Strain/Indicator: TA100, Metabolic Activation: NONE, Method: PREINCUBATION); “inactive; negative” (Test System: AMES SALMONELLA TYPHIMURIUM, Strain/Indicator: TA100, Metabolic Activation: RAT, LIVER, S-9, AROCLOR 1254 (10 OR 30%), Method: PREINCUBATION); “inactive; negative” (Test System: AMES SALMONELLA TYPHIMURIUM, Strain/Indicator: TA1535, Metabolic Activation: HAMSTER, LIVER, S-9, AROCLOR 1254 (10 OR 30%), Method: PREINCUBATION). For the same molecule, the mutagenic call is, setting by setting: (Test System: AMES SALMONELLA TYPHIMURIUM, Strain/Indicator: TA1535, Metabolic Activation: NONE, Method: PREINCUBATION) “inactive; negative”; (Test System: AMES SALMONELLA TYPHIMURIUM, Strain/Indicator: TA1535, Metabolic Activation: RAT, LIVER, S-9, AROCLOR 1254 (10 OR 30%), Method: PREINCUBATION) “inactive; negative”; (Test System: MOUSE LYMPHOMA, Strain/Indicator: L5178Y (TK+/TK-), Metabolic Activation: NONE, Method: SUSPENSION/PLATE) “inactive; negative. reevaluation of results: negative”; (Test System: MOUSE LYMPHOMA, Strain/Indicator: L5178Y (TK+/TK-), Metabolic Activation: RAT, LIVER, S-9, AROCLOR 1254, Method: SUSPENSION/PLATE) “active; positive. reevaluation of results: equivocal”.

With `C=C(C)c1ccc(C)c2ccc(C=O)c-2c1`, the mutagenic call reads like this: under setting [2], “inactive; negative”; under setting [3], “active; positive”; under setting [4], “inactive; negative”; under setting [5], “active; positive”.

On to `C=CCCCCCCCCCCCC`, for which the mutagenic call reads like this: under setting [2], “inactive; negative”; (Test System: AMES SALMONELLA TYPHIMURIUM, Strain/Indicator: TA98, Metabolic Activation: RAT, LIVER, S-9, AROCLOR, Method: STANDARD PLATE) “inactive; negative”; under setting [4], “inactive; negative”; (Test System: AMES SALMONELLA TYPHIMURIUM, Strain/Indicator: TA100, Metabolic Activation: RAT, LIVER, S-9, AROCLOR, Method: STANDARD PLATE) “inactive; negative”; (Test System: AMES SALMONELLA TYPHIMURIUM, Strain/Indicator: UTH8413, Metabolic Activation: NONE, Method: STANDARD PLATE) “inactive; negative”; (Test System: AMES SALMONELLA TYPHIMURIUM, Strain/Indicator: UTH8413, Metabolic Activation: RAT, LIVER, S-9, AROCLOR, Method: STANDARD PLATE) “inactive; negative”. Moreover, the mutagenic call is “inactive; negative” (Test System: AMES SALMONELLA TYPHIMURIUM, Strain/Indicator: UTH8414, Metabolic Activation: NONE, Method: STANDARD PLATE) and “inactive; negative” (Test System: AMES SALMONELLA TYPHIMURIUM, Strain/Indicator: UTH8414, Metabolic Activation: RAT, LIVER, S-9, AROCLOR, Method: STANDARD PLATE).

As to `C[C@H](CCN=[N+]=[N-])c1ccccc1`, the mutagenic call (Test System: AMES SALMONELLA TYPHIMURIUM, Strain/Indicator: TA100, Metabolic Activation: RAT, LIVER, S-9, PCB, Method: PREINCUBATION) is “active; positive”.

As for `[NH-]CCC(=O)[N-][C@@H](Cc1cnc[nH]1)C(=O)[O-].[Zn+2]`, the mutagenic call is “inactive; negative” (Test System: AMES SALMONELLA TYPHIMURIUM, Strain/Indicator: SD100, Metabolic Activation: NONE, Method: PREINCUBATION); “inactive; negative” (Test System: AMES SALMONELLA TYPHIMURIUM, Strain/Indicator: SD100, Metabolic Activation: RAT, LIVER, S-9, AROCLOR 1254, Method: PREINCUBATION); “inactive; negative” under setting [6]; “inactive; negative” (Test System: AMES SALMONELLA TYPHIMURIUM, Strain/Indicator: TM677, Metabolic Activation: RAT, LIVER, S-9, AROCLOR 1254, Method: PREINCUBATION); “inactive; negative” (Test System: E. COLI, Strain/Indicator: WP2 UVRA, Metabolic Activation: NONE, Method: PREINCUBATION); “inactive; negative” (Test System: E. COLI, Strain/Indicator: WP2 UVRA, Metabolic Activation: RAT, LIVER, S-9, AROCLOR 1254, Method: PREINCUBATION).

`Nc1ccccc1O`: the mutagenic call (Test System: AMES SALMONELLA TYPHIMURIUM, Strain/Indicator: TA98, Metabolic Activation: NONE) was “inactive; negative” and the mutagenic call (Test System: AMES SALMONELLA TYPHIMURIUM, Strain/Indicator: TA98, Metabolic Activation: S-9) was “inactive; negative”.

Take `C(=Nc1ccccc1)c1cccc2cccnc12`: the mutagenic call is, setting by setting: under setting [2], “inactive; negative”; under setting [3], “inactive; negative”; under setting [4], “inactive; negative”; under setting [5], “active; positive”; (Test System: AMES SALMONELLA TYPHIMURIUM, Strain/Indicator: TA1535, Metabolic Activation: NONE, Method: STANDARD PLATE) “inactive; negative”; (Test System: AMES SALMONELLA TYPHIMURIUM, Strain/Indicator: TA1535, Metabolic Activation: RAT, LIVER, S-9, AROCLOR 1254, Method: STANDARD PLATE) “inactive; negative”. Also, the mutagenic call runs as follows: (Test System: AMES SALMONELLA TYPHIMURIUM, Strain/Indicator: TA1537, Metabolic Activation: NONE, Method: STANDARD PLATE) “inactive; negative”; (Test System: AMES SALMONELLA TYPHIMURIUM, Strain/Indicator: TA1537, Metabolic Activation: RAT, LIVER, S-9, AROCLOR 1254, Method: STANDARD PLATE) “inactive; negative”.

`O[C@H]1C=CC2=C(c3cccc4cccc2c34)[C@@H]1O`: the mutagenic call reads like this: under setting [6], “active; positive”; (Test System: AMES SALMONELLA TYPHIMURIUM, Strain/Indicator: TM677, Metabolic Activation: RAT, LIVER, POSTMITOCHONDRIAL SUPERNATANT, AROCLOR 1254, Method: PREINCUBATION) “active; positive”.
